# From US9981954B2, “2-(pyrazin-2-ylcarbonylaminomethyl) benzimidazolium compounds as epithelial sodium channel inhibitors” (Boehringer Ingelheim International GmbH, priority 2015, dated 2018)
# Assays:
# [1] = molecular target: T1, ENaC (Epithelial Sodium Channel), Mouse kidney M-1 cells (Mus musculus, UniProt Q61180+Q9WU38+Q9WU39); assay: Ussing Chamber assay: inhibition of amiloride sensitive short circuit current in M-1 cells; type: cell-based; conditions: apical application, 37° C.
# T1 construct: Mouse kidney M-1 cells were cultivated in DMEM containing 5% FCS and 5 μM dexamethasone; endogenous in cells; host or cells: Mouse kidney M-1 cells (polarised on transwell filters, dexamethasone-treated)
# T1 sequence (Q61180 1-699): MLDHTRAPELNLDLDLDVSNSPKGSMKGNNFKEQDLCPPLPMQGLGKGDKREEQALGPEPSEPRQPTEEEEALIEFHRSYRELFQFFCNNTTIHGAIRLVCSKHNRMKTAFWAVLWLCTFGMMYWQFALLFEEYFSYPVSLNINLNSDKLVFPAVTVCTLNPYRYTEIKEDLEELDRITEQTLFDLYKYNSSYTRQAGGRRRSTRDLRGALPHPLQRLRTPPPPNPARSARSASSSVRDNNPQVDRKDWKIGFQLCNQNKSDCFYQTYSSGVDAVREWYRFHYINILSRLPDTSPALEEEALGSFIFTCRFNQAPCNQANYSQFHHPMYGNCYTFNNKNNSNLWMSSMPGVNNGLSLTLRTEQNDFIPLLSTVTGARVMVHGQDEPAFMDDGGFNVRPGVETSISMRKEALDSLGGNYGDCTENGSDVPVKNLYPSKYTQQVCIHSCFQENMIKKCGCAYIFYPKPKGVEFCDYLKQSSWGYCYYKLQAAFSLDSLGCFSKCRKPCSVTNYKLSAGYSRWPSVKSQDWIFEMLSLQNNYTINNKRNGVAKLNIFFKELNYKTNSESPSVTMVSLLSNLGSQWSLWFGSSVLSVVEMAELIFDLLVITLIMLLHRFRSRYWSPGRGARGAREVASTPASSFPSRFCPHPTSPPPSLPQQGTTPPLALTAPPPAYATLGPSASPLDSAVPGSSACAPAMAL
# T1 sequence (Q9WU38 1-638): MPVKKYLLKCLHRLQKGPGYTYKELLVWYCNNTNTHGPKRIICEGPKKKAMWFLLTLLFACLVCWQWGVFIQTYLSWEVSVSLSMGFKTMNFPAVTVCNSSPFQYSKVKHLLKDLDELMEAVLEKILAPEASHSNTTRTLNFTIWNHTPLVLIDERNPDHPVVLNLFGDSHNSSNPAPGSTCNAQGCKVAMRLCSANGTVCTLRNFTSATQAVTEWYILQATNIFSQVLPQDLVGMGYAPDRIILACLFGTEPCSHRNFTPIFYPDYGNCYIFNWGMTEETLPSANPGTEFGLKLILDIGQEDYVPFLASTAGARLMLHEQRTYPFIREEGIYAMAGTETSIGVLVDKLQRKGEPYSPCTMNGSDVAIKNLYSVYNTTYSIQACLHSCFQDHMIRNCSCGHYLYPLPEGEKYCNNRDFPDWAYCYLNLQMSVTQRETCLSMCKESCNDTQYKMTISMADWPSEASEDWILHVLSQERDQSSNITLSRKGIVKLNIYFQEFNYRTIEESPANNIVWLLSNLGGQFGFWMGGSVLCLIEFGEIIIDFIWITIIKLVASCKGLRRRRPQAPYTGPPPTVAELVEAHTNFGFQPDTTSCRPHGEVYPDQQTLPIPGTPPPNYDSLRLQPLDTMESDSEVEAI
# T1 sequence (Q9WU39 1-655): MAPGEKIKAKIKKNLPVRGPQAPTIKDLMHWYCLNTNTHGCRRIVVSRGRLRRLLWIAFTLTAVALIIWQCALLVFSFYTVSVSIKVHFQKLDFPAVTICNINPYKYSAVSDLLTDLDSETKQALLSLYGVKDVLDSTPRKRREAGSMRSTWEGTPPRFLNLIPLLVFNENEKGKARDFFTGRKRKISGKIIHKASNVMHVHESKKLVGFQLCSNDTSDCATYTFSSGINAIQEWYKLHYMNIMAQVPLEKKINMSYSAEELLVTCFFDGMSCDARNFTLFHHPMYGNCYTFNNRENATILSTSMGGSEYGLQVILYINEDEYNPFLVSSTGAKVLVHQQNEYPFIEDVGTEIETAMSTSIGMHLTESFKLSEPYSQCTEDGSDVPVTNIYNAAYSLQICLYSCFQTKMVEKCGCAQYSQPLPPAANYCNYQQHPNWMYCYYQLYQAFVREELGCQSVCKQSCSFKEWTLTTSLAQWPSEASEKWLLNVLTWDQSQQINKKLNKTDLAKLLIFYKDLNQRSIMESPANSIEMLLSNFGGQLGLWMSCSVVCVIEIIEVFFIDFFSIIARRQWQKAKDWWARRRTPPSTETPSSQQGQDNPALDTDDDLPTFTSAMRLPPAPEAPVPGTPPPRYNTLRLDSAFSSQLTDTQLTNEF
# Description: Ussing Chamber: Mouse kidney M-1 cells were cultivated in DMEM containing 5% FCS and 5 μM dexamethasone for 10 to 12 days on polyester transwell filters. Filters were inserted into a teflon-coated well-plate which fit into the ussing chamber system. Prior to measurement the medium of M-1 cells was replaced with Caco-2 transport buffer (Invitrogen, Germany). During measurements, the Ussing chamber temperature was kept at 37° C. Short circuit currents (I_sc) were measured in the voltage-clamp mode with the software package Lab View for data acquisition and analysis. The transepithelial electrical resistance (TEER) was determined by the application of voltage steps of ±5 mV every 5 sec. Compounds were administered at a final concentration of 3 μM or at increasing concentrations (1-3-10 μM) to the apical solution. At the end of each experiment the amiloride sensitive I_SC was measured by adding 3 μM amiloride to the apical compartment. Results are expressed as inhibition in percent of the amiloride effect or as IC50.
# [2] = Permeability in CALU-3 cells; type: in vitro ADME; conditions: human, CALU-3 monolayers, pH 7.4, 37° C., 10 μM compound; for Papp A→B at 90 min, 10 μM: apical-to-basal; for Papp B→A at 90 min, 10 μM: basal-to-apical
# Description: Permeability in CALU-3 Cells:
# Permeability measurements across polarized, confluent CALU-3 cell monolayers grown on permeable filter supports are used to provide information on the potential of a compound to pass the lung epithelium.
# CALU-3 cells (1-2×10^5 cells/l cm^2 area) are seeded on filter inserts (Costar transwell polycarbonate filters, 0.4 μm pore size) and cultured (for 10-12 days DMEM) until tight monolayers are formed. Compounds of interest are dissolved in appropriate solvent (DMSO, 10 mM stock solution). […] The transport solution (TL) is applied to the apical or basolateral donor side for measuring A-B or B-A permeability (3 filter replicates), respectively. The receiver side contains the same buffer as the donor side. After 30 min of accommodation, samples are collected at the start t0=0 min and at the end of the experiment tn=90 min from the donor and at 0, 30, 60, and 90 min also from the receiver chamber. Volume removed is […] by HTP-4 buffer. The compound concentration in the samples is measured by HPLC-MS/MS or scintillation counting. The permeability coefficient (Papp) and efflux ratio are calculated according to: Papp [cm/s]=(concentration receiver [nM]*volume receiver [mL]/time interval [sec])*(1/filter area)*(1/donor concentration [nM]).
SMILES,IC50 [1],"Papp A→B at 90 min, 10 μM [2]","Papp B→A at 90 min, 10 μM [2]"
CC[n+]1c(CNC(=O)c2nc(Cl)c(N)nc2N)n(CCOCCOCCNC(=O)OC(C)(C)C)c2cc(OC)ccc21 [Example 1.01],3 nM,,
CC[n+]1c(CNC(=O)c2nc(Cl)c(N)nc2N)n(CC2(CO)COC2)c2cc(OC)ccc21 [Example 1.02],2 nM,,
CC[n+]1c(CNC(=O)c2nc(Cl)c(N)nc2N)n(CCCc2ccc(OCP(C)(C)=O)cc2)c2cc(OC)ccc21.O=C([O-])C(F)(F)F [Example 1.03],8 nM,0.1 ×10⁻⁶ cm/s,0.07 ×10⁻⁶ cm/s
COc1ccc2c(c1)n(CCF)c(CNC(=O)c1nc(Cl)c(N)nc1N)[n+]2CCOCCOCCO [Example 1.04],2 nM,,
C=CC[n+]1c(CNC(=O)c2nc(Cl)c(N)nc2N)n(CCOCCOCCO)c2ccc(OC)cc21 [Example 1.05],0.4 nM,,
COc1ccc2c(c1)[n+](CCF)c(CNC(=O)c1nc(Br)c(N)nc1N)n2CCOCCOCCO [Example 2.01],2 nM,,
CCn1c(CNC(=O)c2nc(Cl)c(N)nc2N)[n+](CC(=O)N(CCOC)CCOC)c2ccc(OC)cc21 [Example 3.01],10 nM,,
CCn1c(CNC(=O)c2nc(Cl)c(N)nc2N)[n+](CC(=O)N2CCOCC2)c2ccc(OC)cc21.[Br-] [Example 3.02],5 nM,0.06 ×10⁻⁶ cm/s,0.2 ×10⁻⁶ cm/s
CCNC(=O)C[n+]1c(CNC(=O)c2nc(Cl)c(N)nc2N)n(CC)c2cc(OC)ccc21 [Example 3.03],4 nM,,
CCn1c(CNC(=O)c2nc(Cl)c(N)nc2N)[n+](CC(=O)NCCOC)c2ccc(OC)cc21 [Example 3.04],3 nM,,
CCn1c(CNC(=O)c2nc(Cl)c(N)nc2N)[n+](CC(=O)N2CCN(C)CC2)c2ccc(OC)cc21 [Example 3.05],12 nM,,
CCn1c(CNC(=O)c2nc(Cl)c(N)nc2N)[n+](CC(=O)NCCN(C)C)c2ccc(OC)cc21.O=C(O)C(F)(F)F.O=C([O-])C(F)(F)F [Example 3.06],8 nM,0.1 ×10⁻⁶ cm/s,0.03 ×10⁻⁶ cm/s
CCn1c(CNC(=O)c2nc(Cl)c(N)nc2N)[n+](CC(=O)N(C)CCCN(C)C)c2ccc(OC)cc21 [Example 3.07],39 nM,,
CCn1c(CNC(=O)c2nc(Cl)c(N)nc2N)[n+](CC(=O)N2CCN(C(=O)OC(C)(C)C)CC2)c2ccc(OC)cc21.[Br-] [Example 3.08],4 nM,0.1 ×10⁻⁶ cm/s,0.08 ×10⁻⁶ cm/s
CCn1c(CNC(=O)c2nc(Cl)c(N)nc2N)[n+](CC(=O)N(C)CCN(C)C)c2ccc(OC)cc21 [Example 3.09],33 nM,,
CCn1c(CNC(=O)c2nc(Cl)c(N)nc2N)[n+](CC(N)=O)c2ccc(OC)cc21 [Example 3.10],1 nM,,
CCn1c(CNC(=O)c2nc(Cl)c(N)nc2N)[n+](CC(=O)N2CCC(N(C)C)CC2)c2ccc(OC)cc21 [Example 3.11],110 nM,,
CCn1c(CNC(=O)c2nc(Cl)c(N)nc2N)[n+](CC(=O)NC2CCN(C(=O)OC(C)(C)C)CC2)c2ccc(OC)cc21.[Br-] [Example 3.12],12 nM,0.09 ×10⁻⁶ cm/s,0.3 ×10⁻⁶ cm/s
CCn1c(CNC(=O)c2nc(Cl)c(N)nc2N)[n+](CC(=O)N(C)CCOC)c2ccc(OC)cc21.[Br-] [Example 3.13],7 nM,0.07 ×10⁻⁶ cm/s,0.2 ×10⁻⁶ cm/s
CCn1c(CNC(=O)c2nc(Cl)c(N)nc2N)[n+](CC(=O)NC)c2ccc(OC)cc21 [Example 3.14],2 nM,,

# Further lines, results first:
IC50 [1],"Papp A→B at 90 min, 10 μM [2]","Papp B→A at 90 min, 10 μM [2]",SMILES
20 nM,,,CCn1c(CNC(=O)c2nc(Cl)c(N)nc2N)[n+](CC(=O)N(CCO)CCO)c2ccc(OC)cc21 [Example 3.15]
4 nM,,,CCn1c(CNC(=O)c2nc(Cl)c(N)nc2N)[n+](CC(=O)NCCCN(C)C(=O)OC(C)(C)C)c2ccc(OC)cc21 [Example 3.17]
28 nM,,,CCn1c(CNC(=O)c2nc(Cl)c(N)nc2N)[n+](CC(=O)N2CCCN(C(=O)OC(C)(C)C)CC2)c2ccc(OC)cc21 [Example 3.21]
1 nM,,,CCn1c(CNC(=O)c2nc(Cl)c(N)nc2N)[n+](CCCC(=O)NCCN(C)C)c2ccc(OC)cc21 [Example 4.01]
4 nM,,,CC[n+]1c(CNC(=O)c2nc(Cl)c(N)nc2N)n(CCOCCOCCNC(=O)c2nc(Cl)c(N)nc2N)c2cc(OC)ccc21 [Example 5.01]
47 nM,0.3 ×10⁻⁶ cm/s,0.2 ×10⁻⁶ cm/s,CCn1c(CNC(=O)c2nc(Cl)c(N)nc2N)[n+](CC(=O)N2CCNCC2)c2ccc(OC)cc21.Cl.[Cl-] [Example 6.01]
4 nM,,,CC[n+]1c(CNC(=O)c2nc(Cl)c(N)nc2N)n(CCOCCOCCN)c2cc(OC)ccc21 [Example 6.02]
17 nM,,,CCn1c(CNC(=O)c2nc(Cl)c(N)nc2N)[n+](CC(=O)NC2CCNCC2)c2ccc(OC)cc21 [Example 6.03]
63 nM,,,CCn1c(CNC(=O)c2nc(Cl)c(N)nc2N)[n+](CC(=O)N2CCCNCC2)c2ccc(OC)cc21 [Example 6.04]
1 nM,0.07 ×10⁻⁶ cm/s,0.2 ×10⁻⁶ cm/s,CC[n+]1c(CNC(=O)c2nc(Cl)c(N)nc2N)n(C2CCN(C(=O)NCCOC)CC2)c2ccccc21.O=C[O-] [Example 7.01]
0.4 nM,,,CCn1c(CNC(=O)c2nc(Cl)c(N)nc2N)[n+](CCNS(C)(=O)=O)c2ccc(OC)cc21 [Example 9.01]
2 nM,,,CC[n+]1c(CNC(=O)c2nc(Cl)c(N)nc2N)n(CC2(CCc3ccccc3)CCN(C(=O)NC3CCN(C)CC3)CC2)c2ccccc21 [Example 10.01]
